In PMC11901438, “Synthesis and Evaluation of Boron-Containing Heterocyclic Compounds with Antimicrobial and Anticancer Activities” (Molecules, 2025):
Values after ≈ are worked out from the molar mass of the structure shown.

How the values were obtained:
C. albicans ATCC 90028 = assay: Antifungal susceptibility test (CLSI M27-A3 microdilution, resazurin), MIC90; settings: Candida albicans, ATCC90028, read-out: C. albicans ATCC 90028 MIC90
T. mentagrophytes = system: T. mentagrophytes; set-up: method as in PMID 29371574; settings: cited from earlier work
[1] = system: T. rubrum (ATCC 1890, ATCC 18759); set-up: method as in PMID 17588934; settings: cited from earlier work
M. gypseum (ATCC 24103) = system: M. gypseum (ATCC 24103); set-up: method as in PMID 17588934; settings: cited from earlier work
T. rubrum = system: T. rubrum; set-up: method as in PMID 29371574; settings: cited from earlier work
[2] = system: T. mentagrophytes (ATCC 28185); set-up: method as in PMID 17588934; settings: cited from earlier work
[3] = system: E. floccosum (ATCC 525066); set-up: method as in PMID 17588934; settings: cited from earlier work
[4] = set-up: method as in PMID 26640371; settings: cited from earlier work
[5] = system: M. audouinii (ATCC 42558); set-up: method as in PMID 17588934; settings: cited from earlier work

| SMILES | MIC90 (C. albicans ATCC 90028) | MIC (fungistatic effects) (T. mentagrophytes) | MIC [1] | MIC (M. gypseum (ATCC 24103)) | MIC (fungistatic effects) (T. rubrum) | MIC [2] | MIC [3] | rate of complete cure [4] | rate of mycological cure [4] | MIC [5] |
| --- | --- | --- | --- | --- | --- | --- | --- | --- | --- | --- |
| CCC(C)n1ncn(-c2ccc(N3CCN(c4ccc(OCC5COC(Cn6cncn6)(c6ccc(Cl)cc6Cl)O5)cc4)CC3)cc2)c1=O (stereo not shown) [Itraconazole] | 0.34 nM (≈ 0.24 ng/mL) |  |  |  |  |  |  |  |  |  |
| OB1OCc2cc(F)ccc21 [Tavaborole] |  | 8 µg/mL (≈ 52.7 µM) | 2.0 µg/mL (≈ 13.2 µM) | 2.0 µg/mL (≈ 13.2 µM) | 8 µg/mL (≈ 52.7 µM) | 2.0 µg/mL (≈ 13.2 µM) | 1.0 µg/mL (≈ 6.58 µM) | ≤ 10% | up to 36% | 2.0 µg/mL (≈ 13.2 µM) |
